Results published in patent publication US20220257777A1, “HSP90-BINDING CONJUGATES AND COMBINATION THERAPIES THEREOF” (TVA (ABC), LLC, priority 2019, published 2022).
Where two headings read alike, the source gives them in different places. Marks after values point to notes of the source that are not given here.

Legend:
[1] = cited from earlier work; for Ratio of tumor level/plasma level: after Onivyde treatment at 72 h; for Amount in Tumor: patient biopsies after Onivyde treatment at 72 h (13 patients); for Amount in Plasma: patients after Onivyde treatment at 72 h (13 patients)
[2] = Phase 1/2a study, plasma pharmacokinetics of Conjugate 1 and SN-38; type: in vivo, human
Excerpt: (§1) In a Phase 1/2a study of Conjugate 1, patients received weekly Conjugate 1 treatment for 3 of 4 weeks in a 28-day cycle. The patients have histologically or cytologically confirmed advanced solid tumors. Their tumor types included anus, breast, cholangiocarcinoma, colon, Ewing sarcoma, liver, lung, neuroendocrine (unknown primary), ovary, pancreas, salivary gland, and sarcoma. They have received one or more prior lines of anticancer therapy. The patients received flat dosings or dosings based on body surface area (BSA). The doses included 30 mg, 60 mg, 120 mg, 240 mg, 360 mg, 175 mg/m^2, and 200 mg/m^2. […] BSA-based dosing will be used for future studies.
To study pharmacokinetics (PK) profile, multiple plasma samples were collected to measure Conjugate 1 and SN-38 concentrations. […] Elimination half-life was ˜10 hours across all dose ranges. Free SN-38 levels were generally low. AUC is <2% of the conjugate (Conjugate 1) AUC.

[3] = Phase 1/2a study, maximum tolerated dose and adverse events; type: in vivo, human
Excerpt: as §1
AEs are well-managed with dose modification.

advanced solid tumors = assay: Phase 1/2a study, tumor response; type: in vivo, human
Excerpt: as §1
120-360 mg flat dose and 175 mg/m2 BSA dose were associated with stable disease that was maintained for ≥12 weeks.

[4] = Levels of Conjugate 1 and SN-38 in patient tumor biopsy and plasma at 24 h; type: in vivo, human
Experimental: A pancreatic cancer patient received Conjugate 1 at a dose of 150 mg/m^2 and underwent a tumor biopsy to determine Conjugate 1 and SN-38 levels in tumor and plasma. Samples were taken 24 h after the second dose of 150 mg/m^2 Conjugate 1 from a liver metastasis.
Conjugate 1 and SN-38 levels in tumor are much higher than the levels in plasma.

[5] = Tumor exposure of Conjugate 1 and SN-38 in H1975 mouse xenograft model at 24 h; type: in vivo; conditions: for concentration at 24 h: mouse, in vivo; for SN-38 in tumor at 24 h: H1975 model
[6] = tested on: H1975 (NSCLC) mouse xenograft; assay: Efficacy in H1975 (NSCLC) mouse xenograft model; type: in vivo
[7] = patients dosed with Conjugate 1, plasma

## CCc1c2c(nc3ccc(OC(=O)N4CCC(N5CCCCC5)CC4)cc13)-c1cc3c(c(=O)n1C2)COC(=O)[C@]3(O)CC [Irinotecan]
[1]
  Ratio of tumor level/plasma level: About 0.5
  Amount in Tumor: 4043 nM
  Amount in Plasma: 7.921 µM
[1]; listed as irinotecan
  Ratio of tumor level/plasma level: about ½

## CCc1c2c(nc3ccc(OC(=O)N4CCC(CCn5ccc6cc(-n7c(O)nnc7-c7cc(C(C)C)c(O)cc7O)ccc65)CC4)cc13)-c1cc3c(c(=O)n1C2)COC(=O)[C@]3(O)CC [Conjugate 1, (S)-4,11-diethyl-4-hydroxy-3,14-dioxo-3,4,12,14-tetrahydro-1H-pyrano[3′,4′:6,7]indolizino[1,2-b]quinolin-9-yl 4-(2-(5-(3-(2,4-dihydroxy-5-isopropylphenyl)-5-hydroxy-4H-1,2,4-triazol-4-yl)-1H-indol-1-yl)ethyl)piperidine-1-carboxylate]
[2]; human, in vivo, Elimination half-life
  half-life: ~10 h
[2]; patients, 30 mg to 200 mg/m^2
  Dose proportionality of PK: non-linear PK at lower doses, but greater proportionality was observed at higher doses
[2]; patients, PK analyses
  Linker stability in circulation: stable in circulation
[3]; patients with advanced solid tumors, weekly for 3 of 4 weeks in a 28-day cycle
  Maximum tolerated dose (MTD), monotherapy: 175 mg/m^2
[3]; patients, Phase 1
  Most common AEs: nausea, fatigue, diarrhea, vomiting and alopecia
  Overall safety / adverse event profile: safe and has an expected adverse (AE) event profile
Advanced solid tumors; 120-360 mg flat dose and 175 mg/m2 BSA dose
  Time stable disease was maintained: ≥ 12 weeks
Advanced solid tumors; of the 17 patients who received Conjugate 1 treatment
  Patients achieving partial response (PR; reduction of tumor size by 30% or more): one
[4]; human, in vivo, 24 h
  SN-38 tumor level relative to SN-38 tumor level of patients who received Onivyde: about 3.5 fold
[5]; 50 mg/kg
  concentration at 24 h: 163 nM
[5]; 100 mg/kg
  concentration at 24 h: 149 nM
[5]; 150 mg/kg
  concentration at 24 h: 4990 nM
[6]; weekly dose of 150 mg/kg
  Efficacy in the xenograft model: tumor regression
[6]; weekly doses of 72 mg/kg and 100 mg/kg
  Efficacy in the xenograft model: significant efficacy

## CCc1c2c(nc3ccc(O)cc13)-c1cc3c(c(=O)n1C2)COC(=O)[C@]3(O)CC [SN-38, reference compound]
[2]; [7]
  Free SN-38 AUC as share of the conjugate (Conjugate 1) AUC: < 2%
  Free SN-38 levels / systemic exposure to free SN-38: generally low
[2]; patients dosed with Conjugate 1, plasma, listed as SN-28
  Free SN-38 levels / systemic exposure to free SN-38: low
[4]; at 24 h, average of 5 patients dosed at 175 mg/m^2 Conjugate 1
  Amount in Plasma: 25.5* nM
[4]; at 24 h, tumor at 150 mg/m^2, plasma at 175 mg/m^2 Conjugate 1
  Ratio of tumor level/plasma level: About 3.4
[4]; pancreatic cancer patient, liver metastasis biopsy, 24 h after the second dose of 150 mg/m^2 Conjugate 1
  Amount in Tumor: 86.6 nM
[5]; Conjugate 1 50 mg/kg
  SN-38 in tumor at 24 h: 98 nM
[5]; Conjugate 1 100 mg/kg
  SN-38 in tumor at 24 h: 18.4 nM
[5]; Conjugate 1 150 mg/kg
  SN-38 in tumor at 24 h: 221 nM
[1]
  Ratio of tumor level/plasma level: About 4.2
  Amount in Tumor: 24.5 nM
  Amount in Plasma: 0.0059 µM
